Like-named read-outs stand apart in the source and are kept apart here.
Columns and labels:
Assay type in all cases: in vivo
[1] = tested on: LOLMU (Lolium multiflorum, italian ryegrass); experiment: greenhouse herbicidal activity on Lolium multiflorum; details: Post-Emergence; for inhibition at 13 g/ha / inhibition at 50 g/ha: Lolium multiflorum; for inhibition at 50 g/ha: 50 g ai/ha
From the text: (§1) For the post-emergence treatment, the test plants were first grown to a height of 3 to 20 cm, depending on the plant habit, and only then treated. Here, the herbicidal compositions were suspended or emulsified in water as distribution medium and sprayed using finely distributing nozzles.
(§2) The respective herbicides A and/or safener were formulated as 10% by weight strength suspension concentrate and introduced to the spray liquor with the amount of solvent system used for applying the active compound. Herbicide B and/or safener were used as commercially available formulations and introduced to the spray liquor with the amount of solvent system used for applying the active compound. In the examples, the solvent used was water.
(§3) Picolinafen was used as a commercial wettable granule formulation having an active ingredient content of 75% by weight.
(§4) 4-(3-trifluoromethylphenoxy)-2-(4-trifluoromethylphenyl)-pyrimidine was used as an aqueous suspension concentrate having an active ingredient concentration of 200 g/l.
(§5) The test period extended over 21 days. During this time, the plants were tended, and their response to the treatments with active compound was evaluated.
(§6) The evaluation for the damage caused by the chemical compositions was carried out using a scale from 0 to 100%, compared to the untreated control plants. Here, 0 means no damage and 100 means complete destruction of the plants.
(§7) The value E, which is to be expected if the activity of the individual compounds is just additive, was calculated using the method of S. R. Colby (1967) “Calculating synergistic and antagonistic responses of herbicide combinations”, Weeds 15, p. 22 ff.
(§8) where X=effect in percent using herbicide A at an application rate a; • Y=effect in percent using herbicide B at an application rate b; • E=expected effect (in %) of A+B at application rates a+b.
(§9) If the value observed in this manner is higher than the value E calculated according to Colby, a synergistic effect is present.

[2] = tested on: STEME (Stellaria media, chickweed); experiment: greenhouse herbicidal activity on Stellaria media; details: Post-Emergence; for inhibition at 50 g/ha: Stellaria media
From the text: as §1, §2, §3, §4, §5, §6, §7, §8, §9

[3] = tested on: GALAP (Galium aparine, cleaver); experiment: greenhouse herbicidal activity on Galium aparine; details: Post-Emergence, 20 DAT
From the text: as §1, §2, §4, §5, §6, §7, §8, §9

[4] = tested on: VERPE (Veronica persica, field speedwell); experiment: greenhouse herbicidal activity on Veronica persica; details: Post-Emergence, 20 DAT
From the text: as §1
(§10) The respective herbicides A and/or safener were formulated as 10% by weight strength suspension concentrate and introduced to the spray liquor with the amount of solvent system used for applying the active compound. Herbicide B and/or safener were used as commercially available formulations and introduced to the spray liquor with the amount of solvent system used for applying the active compound. In the examples, the solvent used was water. […]
(§11) The test period extended over 21 days. During this time, the plants were tended, and their response to the treatments with active compound was evaluated. […]
(§12) The value E, which is to be expected if the activity of the individual compounds is just additive, was calculated using the method of S. R. Colby (1967) “Calculating synergistic and antagonistic responses of herbicide combinations”, Weeds 15, p. […]
as §9

[5] = tested on: ALOMY (Alopecurus myosuroides, blackgrass); experiment: greenhouse herbicidal activity on Alopecurus myosuroides; details: Post-Emergence, 20 DAT
From the text: as §1, §10, §11, §12, §9

[6] = tested on: PHACA (Phalaris canariensis, canarygrass); experiment: greenhouse herbicidal activity on Phalaris canariensis; details: Post-Emergence; for inhibition at 50 g/ha / inhibition at 100 g/ha: Phalaris canariensis; for inhibition at 50 g/ha: 50 g ai/ha; for inhibition at 100 g/ha: 100 g ai/ha
From the text: as §1, §2, §3, §5, §6, §7, §8, §9

[7] = 192 h, 8 DAT, read-out: observed % activity 8 DAT
[8] = 480 h, 20 DAT, read-out: observed % activity 20 DAT

For `FC(F)(F)c1ccc(-c2nccc(Oc3cccc(C(F)(F)F)c3)n2)cc1` [Compound B, 4-(3-trifluoromethylphenoxy)-2-(4-trifluoromethylphenyl)-pyrimidine], which “observed activity in % destruction 20 days after treatment” value ([1]; 63 g ai/ha, 20 DAT) is on record?
Its value is 50%.

And the “observed activity in % destruction 20 days after treatment” value ([1]; 125 g ai/ha, 20 DAT)?
Its value is 70%.

And the “observed activity in % destruction 20 days after treatment” value ([2]; 16 g ai/ha, 20 DAT)?
Its value is 95%.

And the “observed activity in % destruction 20 days after treatment” value ([2]; 31 g ai/ha, 20 DAT)?
The value was 95%.

What about the “observed activity in % destruction 20 days after treatment” value ([3]; 31 g ai/ha) of the same compound?
The value was 85%.

What about the “observed activity in % destruction 20 days after treatment” value ([3]; 63 g ai/ha) of the same compound?
Its value is 85%.

What about the “observed activity in % destruction 20 days after treatment” value ([4]; 31 g ai/ha) of the same compound?
The value was 98%.

What about the “observed activity in % destruction 20 days after treatment” value ([5]; 16 g ai/ha) of the same compound?
The value was 15%.

`O=C(Nc1ccc(F)cc1)c1cccc(Oc2cccc(C(F)(F)F)c2)n1` [picolinafen] was tested. Which “observed % activity 8 DAT” value ([1]; 25 g ai/ha, 8 DAT) did it give?
The value was 0%.

What about the “observed % activity 20 DAT” value ([1]; 25 g ai/ha, 20 DAT) of the same compound?
The value was 20%.

What about the “observed % activity 8 DAT” value ([6]; 13 g ai/ha, 8 DAT) of the same compound?
Its value is 10%.

And the “observed % activity 20 DAT” value ([6]; 13 g ai/ha, 20 DAT)?
The value was 30%.

What about the “observed % activity 8 DAT” value ([2]; 13 g ai/ha, 8 DAT) of the same compound?
Its value is 60%.

What about the “observed % activity 20 DAT” value ([2]; 13 g ai/ha, 20 DAT) of the same compound?
Its value is 90%.

For `Cn1nc(C(F)(F)F)c(CS(=O)(=O)C2=NOC(C)(C)C2)c1OC(F)F` [pyroxasulfone, 3-[5-(difluoromethoxy)-1-methyl-3-(trifluoromethyl)pyrazol-4-ylmethylsulfonyl]-4,5-dihydro-5,5-dimethyl-1,2-oxazole], which inhibition at 13 g/ha ([1]; 192 h, 13 g ai/ha, 8 DAT, read-out: observed % activity 8 DAT) is on record?
The inhibition at 13 g/ha was 40%.

And the inhibition at 50 g/ha [1, 7]?
The inhibition at 50 g/ha was 50%.

What about the inhibition at 13 g/ha ([1]; 480 h, 13 g ai/ha, 20 DAT, read-out: observed % activity 20 DAT) of the same compound?
The inhibition at 13 g/ha was 50%.

And the inhibition at 50 g/ha [1, 8]?
Its inhibition at 50 g/ha is 85%.

What about the “observed activity in % destruction 20 days after treatment” value ([1]; 13 g ai/ha, 20 DAT (Table 2)) of the same compound?
Its value is 50%.

What about the “observed activity in % destruction 20 days after treatment” value ([1]; 25 g ai/ha, 20 DAT (Table 2)) of the same compound?
The value was 75%.

What about the inhibition at 50 g/ha [6, 7] of the same compound?
Its inhibition at 50 g/ha is 55%.

What about the inhibition at 100 g/ha [6, 7] of the same compound?
The inhibition at 100 g/ha was 60%.

What about the inhibition at 50 g/ha [6, 8] of the same compound?
Its inhibition at 50 g/ha is 90%.

And the inhibition at 100 g/ha [6, 8]?
The inhibition at 100 g/ha was 90%.

What about the “observed activity in % destruction 20 days after treatment” value ([2]; 25 g ai/ha, 20 DAT) of the same compound?
The value was 80%.

What about the “observed activity in % destruction 20 days after treatment” value ([2]; 50 g ai/ha, 20 DAT (Table 2)) of the same compound?
Its value is 85%.

And the inhibition at 50 g/ha ([2]; 192 h, 50 g ai/ha, 8 DAT, read-out: observed % activity 8 DAT)?
The inhibition at 50 g/ha was 70%.

And the inhibition at 50 g/ha ([2]; 480 h, 50 g ai/ha, 20 DAT, read-out: observed % activity 20 DAT)?
Its inhibition at 50 g/ha is 85%.

What about the “observed activity in % destruction 20 days after treatment” value ([3]; 25 g ai/ha) of the same compound?
Its value is 90%.

What about the “observed activity in % destruction 20 days after treatment” value ([3]; 50 g ai/ha) of the same compound?
Its value is 90%.

What about the “observed activity in % destruction 20 days after treatment” value ([3]; 100 g ai/ha) of the same compound?
The value was 95%.

What about the “observed activity in % destruction 20 days after treatment” value ([4]; 25 g ai/ha) of the same compound?
The value was 60%.

And the “observed activity in % destruction 20 days after treatment” value ([5]; 100 g ai/ha)?
The value was 90%.
